# Source: patent US9315503B2, “Kinase inhibitors” (CHIESI FARMACEUTICI S.p.A., priority 2011, dated 2016)
# Structures can show the parent of a compound that is named as a salt.
# Columns and labels:
# p38alpha = molecular target: T1, p38alpha (Homo sapiens, UniProt Q16539); assay: P38Alpha enzyme inhibition assay (Alphascreen kinase activity assay); assay type: biochemical; conditions: 100 pM p38alpha, 250 μM ATP, 2 hours pre-incubation at 25° C., read-out: p38α inhibition (IC50 values)
# T1 construct: purchased Invitrogen PV3304
# Procedure, shortened: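 AlphaScreen read-out: after an EDTA stop, an anti-phospho-ATF2 antibody with Protein A acceptor and donor beads measured substrate phosphorylation. Compounds sat 2 h at 25°C with 100 pM p38α and 0.3 µg/ml ATF-2 fusion protein (pH 7.5, 1% DMSO) before 250 µM ATP was added for 1 h. IC50 from dose-response.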
# [1] = test system: LPS-stimulated TNFα release from PBMCs; assay: LPS-stimulated PBMC TNFα release assay; assay type: cell-based; conditions: inhibition of TNFα release, human PBMCs, LPS 10 ng/ml, 18 h, ELISA, read-out: p38α inhibition (IC50 values)
# Method: LPS-Stimulated PBMC TNFα Release Assay.
# Peripheral Blood Mononuclear Cells (PBMCs) were isolated from healthy human volunteer blood using a standard density gradient centrifugation technique. Citrated blood was placed onto Histopaque™ and centrifuged. The PBMCs were removed from the density gradient interface and washed in phosphate buffered saline (PBS). The PBMCs were suspended in RPMI 1640 medium (without serum), dispensed into a 96-well plate and incubated at 37° C. for 3 h in a humidified incubator. After incubation, the medium was replaced (with medium containing 1% foetal bovine serum) and the plate incubated at 37° C., for 1 h, in the presence of test compound or the appropriate vehicle. LPS (10 ng/ml), or an appropriate vehicle control, was then added to the cells and the plate returned to the incubator for 18 h. Cell-free supernatants were removed and assayed for TNFα levels using an ELISA kit from R&D Systems.
# A dose response curve to each test compound was performed and the effect of compound in each experiment was expressed as a percentage inhibition of the control TNFα release. Dose response curves were plotted and compound potency (IC50) was determined. Compounds were tested in at least three separate experiments.
# T1 sequence (Q16539 whole entry): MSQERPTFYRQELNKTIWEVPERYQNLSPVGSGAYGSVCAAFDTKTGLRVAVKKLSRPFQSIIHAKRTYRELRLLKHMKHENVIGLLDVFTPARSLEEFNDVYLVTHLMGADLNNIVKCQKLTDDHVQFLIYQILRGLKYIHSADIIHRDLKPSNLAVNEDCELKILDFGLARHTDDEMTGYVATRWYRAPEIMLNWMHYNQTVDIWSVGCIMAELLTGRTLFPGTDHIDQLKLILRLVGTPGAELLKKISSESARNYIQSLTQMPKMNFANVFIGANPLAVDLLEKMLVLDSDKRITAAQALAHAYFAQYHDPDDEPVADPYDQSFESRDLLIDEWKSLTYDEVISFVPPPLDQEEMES
Structure (SMILES),IC50 (p38alpha),IC50 [1]
"Cc1ccc(-n2nc(C(C)(C)C)cc2NC(=O)N[C@H]2CC[C@@H](Oc3ccc4nnc(N5CCC(O)CC5)n4c3)c3ccccc32)cc1 [Example 24, 1-(5-tert-Butyl-2-p-tolyl-2H-pyrazol-3-yl)-3-[(1S,4R)-4-[3-(4-hydroxypiperidin-1-yl)-[1,2,4]triazolo[4,3-a]pyridine-6-yloxy]-1,2,3,4-tetrahydro-naphthalen-1-yl]-urea]",< 10 nM,< 10 nM
"Cc1ccc(-n2nc(C(C)(C)C)cc2NC(=O)N[C@H]2CC[C@H](Oc3ccc4nnc([C@@H]5CCCN5C)n4c3)c3ccccc32)cc1 [Example 72, 1-(5-tert-Butyl-2-p-tolyl-2H-pyrazol-3-yl)-3-{(1S,4S)-4-[3-((S)-1-methyl-pyrrolidin-2-yl)-[1,2,4]triazolo[4,3-a]pyridin-6-yloxy]-1,2,3,4-tetrahydro-naphthalen-1-yl}-urea]",< 10 nM,< 10 nM
"Cc1ccc(-n2nc(C(C)(C)C)cc2NC(=O)N[C@H]2CC[C@@H](Oc3ccc4nnc(NC(C)C)n4c3)c3ccccc32)cc1 [Example 8, 1-(5-tert-Butyl-2-p-tolyl-2H-pyrazol-3-yl)-3-[(1S,4R)-4-(3-isopropylamino-[1,2,4]triazolo[4,3-a]pyridin-6-yloxy)-1,2,3,4-tetrahydro-naphthalen-1-yl]-urea]",< 10 nM,< 10 nM
"CN1CCC[C@H]1c1nnc2ccc(O[C@@H]3CC[C@H](NC(=O)Nc4cc(C(C)(C)C)nn4-c4cccc(SCCO)c4)c4ccccc43)cn12 [Example 35, 1-{5-tert-Butyl-2-[3-(2-hydroxy-ethylsulfanyl)-phenyl]-2H-pyrazol-3-yl}-3-{(1S,4R)-4-[3-((S)-1-methyl-pyrrolidin-2-yl)-[1,2,4]triazolo[4,3-a]pyridin-6-yloxy]-1,2,3,4-tetrahydro-naphthalen-1-yl}-urea]",< 10 nM,< 10 nM
Cc1ccc(-n2nc(C(C)(C)C)cc2NC(=O)N[C@H]2CC[C@@H](Oc3ccc4nnc(N5CCCCC5)n4c3)c3ccccc32)cc1 [Example 3],< 10 nM,< 10 nM
"Cc1ccc(-n2nc(C(C)(C)C)cc2NC(=O)N[C@H]2CC[C@H](Oc3ccc4nnc(N5CCCCC5)n4c3)c3ccccc32)cc1 [Example 55, 1-(5-tert-Butyl-2-p-tolyl-2H-pyrazol-3-yl)-3-[(1S,4S)-4-(3-piperidin-1-yl-[1,2,4]triazolo[4,3-a]pyridin-6-yloxy)-1,2,3,4-tetrahydro-naphthalen-1-yl]-urea]",< 10 nM,< 10 nM
"Cc1ccc(-n2nc(C(C)(C)CO)cc2NC(=O)N[C@H]2CC[C@@H](Oc3ccc4nnc(N5CCCCC5)n4c3)c3ccccc32)cc1 [Example 36, 1-[5-(2-Hydroxy-1,1-dimethyl-ethyl)-2-p-tolyl-2H-pyrazol-3-yl]-3-[(1S,4R)-4-(3-piperidin-1-yl-[1,2,4]triazolo[4,3-a]pyridin-6-yloxy)-1,2,3,4-tetrahydro-naphthalen-1-yl]-urea]",< 10 nM,< 10 nM
"CN1CCC[C@H]1c1nnc2ccc(O[C@@H]3CC[C@H](NC(=O)Nc4cc(C(C)(C)C)nn4-c4ccc(O)cc4)c4ccccc43)cn12 [Example 73, 1-[5-tert-Butyl-2-(4-hydroxy-phenyl)-2H-pyrazol-3-yl]-3-{(1S,4R)-4-[3-((S)-1-methyl-pyrrolidin-2-yl)-[1,2,4]triazolo[4,3-a]pyridin-6-yloxy]-1,2,3,4-tetrahydro-naphthalen-1-yl}-urea]",< 10 nM,< 10 nM
"CN1CCC[C@H]1c1nnc2ccc(O[C@@H]3CC[C@H](NC(=O)Nc4cc(C(C)(C)C)nn4-c4cccc(OCCO)c4)c4ccccc43)cn12 [Example 42, 1-{5-tert-Butyl-2-[3-(2-hydroxy-ethoxy)-phenyl]-2H-pyrazol-3-yl}-3-{(1S,4R)-4-[3-((S)-1-methyl-pyrrolidin-2-yl)-[1,2,4]triazolo[4,3-a]pyridin-6-yloxy]-1,2,3,4-tetrahydro-naphthalen-1-yl}-urea]",< 10 nM,< 10 nM
"Cc1ccc(-n2nc(C(C)(C)C)cc2NC(=O)N[C@H]2CC[C@@H](Oc3ccc4nnc([C@H]5CCCN5C)n4c3)c3ccccc32)cc1 [Example 60, 1-(5-tert-Butyl-2-p-tolyl-2H-pyrazol-3-yl)-3-{(1S,4R)-4-[3-((R)-1-methyl-pyrrolidin-2-yl)-[1,2,4]triazolo[4,3-a]pyridin-6-yloxy]-1,2,3,4-tetrahydro-naphthalen-1-yl}-urea]",< 10 nM,< 10 nM
"Cc1ccc(-n2nc(C(C)(C)C)cc2NC(=O)N[C@H]2CC[C@@H](Oc3ccc4nnc(N(C)CCO)n4c3)c3ccccc32)cc1 [Example 25, 1-(5-tert-Butyl-2-p-tolyl-2H-pyrazol-3-yl)-3-[(1S,4R)-4-{3-[(2-hydroxy-ethyl)-methyl-amino]-[1,2,4]triazolo[4,3-a]pyridine-6-yloxy]-1,2,3,4-tetrahydro-naphthalen-1-yl]-urea]",< 10 nM,< 10 nM

# The next lines start with results.
IC50 (p38alpha),Structure (SMILES),IC50 [1]
< 10 nM,"Cc1ccc(-n2nc(C(C)(C)C)cc2NC(=O)N[C@H]2CC[C@@H](Oc3ccc4nnc(N5CCN(CCO)CC5)n4c3)c3ccccc32)cc1 [Example 94, 1-(5-tert-Butyl-2-p-tolyl-2H-pyrazol-3-yl)-3-((1S,4R)-4-{3-[4-(2-hydroxy-ethyl)-piperazin-1-yl]-[1,2,4]triazolo[4,3-a]pyridin-6-yloxy}-1,2,3,4-tetrahydro-naphthalen-1-yl)-urea]",10 to 100 nM
< 10 nM,"CC(C)(C)c1cc(NC(=O)N[C@H]2CC[C@@H](Oc3ccc4nnc(N5CCCCC5)n4c3)c3ccccc32)n(-c2cnn(CCCN3CCOCC3)c2)n1 [Example 114, 1-[3-tert-Butyl-1′-(3-morpholin-4-yl-propyl)-1′H-[1,4′]bipyrazolyl-5-yl]-3-[(1S,4R)-4-(3-piperidin-1-yl-[1,2,4]triazolo[4,3-a]pyridin-6-yloxy)-1,2,3,4-tetrahydro-naphthalen-1-yl]-urea formate salt]",< 10 nM
< 10 nM,"C[C@H]1CCCCN1c1nnc2ccc(O[C@@H]3CC[C@H](NC(=O)Nc4cc(C(C)(C)C)nn4CCN4CCN(C)CC4)c4ccccc43)cn12 [Example 129, 1-{5-tert-Butyl-2-[2-(4-methyl-piperazin-1-yl)-ethyl]-2H-pyrazol-3-yl}-3-{(1S,4R)-4-[3-((S)-2-methyl-piperidin-1-yl)-[1,2,4]triazolo[4,3-a]pyridin-6-yloxy]-1,2,3,4-tetrahydro-naphthalen-1-yl}-urea formate salt]",10 to 100 nM
< 10 nM,"Cc1ccc(-n2nc(C(C)(C)C)cc2NC(=O)N[C@H]2CC[C@@H](Oc3ccc4nnc([C@@H]5CCCN5CCCO)n4c3)c3ccccc32)cc1 [Example 84, 1-(5-tert-Butyl-2-p-tolyl-2H-pyrazol-3-yl)-3-((1S,4R)-4-{3-[(S)-1-(3-hydroxy-propyl)-pyrrolidin-2-yl]-[1,2,4]triazolo[4,3-a]pyridin-6-yloxy}-1,2,3,4-tetrahydro-naphthalen-1-yl)-urea]",< 10 nM
< 10 nM,"COc1c(NC(=O)N[C@H]2CC[C@@H](Oc3ccc4nnc(N5CCCCC5)n4c3)c3ccccc32)cc(C(C)(C)C)cc1NS(C)(=O)=O [Example 104, N-(5-tert-Butyl-2-methoxy-3-{3-[(1S,4R)-4-(3-piperidin-1-yl-[1,2,4]triazolo[4,3-a]pyridin-6-yloxy)-1,2,3,4-tetrahydro-naphthalen-1-yl]-ureido}-phenyl)-methanesulfonamide]",< 10 nM
< 10 nM,"C[C@@H]1CCC[C@H](C)N1c1nnc2ccc(O[C@@H]3CC[C@H](NC(=O)Nc4cc(C(C)(C)C)nn4-c4cccc(CN5CCOCC5)c4)c4ccccc43)cn12 [Example 130, 1-[5-tert-Butyl-2-(3-morpholin-4-ylmethyl-phenyl)-2H-pyrazol-3-yl]-3-{(1S,4R)-4-[3-((2S,6R)-2,6-dimethyl-piperidin-1-yl)-[1,2,4]triazolo[4,3-a]pyridin-6-yloxy]-1,2,3,4-tetrahydro-naphthalen-1-yl}-urea formate salt]",< 10 nM
< 10 nM,"C[C@@H]1CCCCN1c1nnc2ccc(O[C@@H]3CC[C@H](NC(=O)Nc4cc(C(C)(C)C)nn4-c4cccc(OCCN(C)C)c4)c4ccccc43)cn12 [Example 123, 1-{5-tert-Butyl-2-[3-(2-dimethylamino-ethoxy)-phenyl]-2H-pyrazol-3-yl}-3-{(1S,4R)-4-[3-((R)-2-methyl-piperidin-1-yl)-[1,2,4]triazolo[4,3-a]pyridin-6-yloxy]-1,2,3,4-tetrahydro-naphthalen-1-yl}-urea partial formate salt]",< 10 nM
< 10 nM,"Cc1ccc(-n2nc(C(C)(C)C)cc2NC(=O)N[C@H]2CC[C@@H](Oc3ccc4nnc(N5CCC[C@H](CO)C5)n4c3)c3ccccc32)cc1 [Example 78, 1-(5-tert-Butyl-2-p-tolyl-2H-pyrazol-3-yl)-3-{(1S,4R)-4-[3-((S)-3-hydroxymethyl-piperidin-1-yl)-[1,2,4]triazolo[4,3-a]pyridin-6-yloxy]-1,2,3,4-tetrahydro-naphthalen-1-yl}-urea]",< 10 nM
